Measurements taken from patent US11077167B2, “Agent for promoting skeletal muscle injury repair” (Osaka University, priority 2017, dated 2021).

Tests used:
mesenchymal cell = conditions: Patent Literature 2; cited from earlier work
[1] = test system: muscle injury model rats (incised masseter muscles on both sides); assay: Behavioral physiological experiment (feeding efficiency), Example 2; assay type: in vivo, Jcl:SD rats
Description: (§1) Incisions were made in masseter muscles on both sides in Jcl:SD rats (10 weeks old) under anesthesia in the same manner as in Example 1. Immediately after muscle incision, 1 mL each of the SV peptide (20 ng/mL) or 1 mL each of PBS was intramuscularly administered into several sites surrounding the cut surfaces. The incision on each side was made along a straight line connecting the lateral angle of the eye and the mandibular angle, extending in depth from the fascia on the skin side to the lateral periosteum on the mandibular ramus. The cut surfaces were subjected to electrocoagulation with an electric scalpel for the arrest of bleeding (see FIG. 1). […]
In the same manner as in Example 1, each rat was housed in a transparent plastic cage of 30 cm in length×30 cm in width×30 cm in height at postoperative weeks 1, 2, 4, 6, and 8, and the behavior was recorded on video cameras during the active time of rats (18:00 to 22:00). Food intake and mastication time were measured, and the food intake per unit of mastication time (feeding efficiency) was calculated.

[2] = test system: muscle injury model rats (incised masseter muscles on both sides); assay: Behavioral physiological experiment (feeding behavior, body weight), Example 1; assay type: in vivo, Jcl:SD rats; conditions: 1 mL intramuscular
Description: (§2) Incisions were made in masseter muscles on both sides in Jcl:SD rats (10 weeks old). Immediately after muscle incision, 1 mL each of the SV peptide (20 ng/mL) was intramuscularly administered into several sites surrounding the cut surfaces. The incision on each side was made along a straight line connecting the lateral angle of the eye and the mandibular angle, extending in depth from the fascia on the skin side to the lateral periosteum on the mandibular ramus. The cut surfaces were subjected to electrocoagulation with an electric scalpel for the arrest of bleeding (see FIG. 1).
Feeding behavior and body weight of each rat was monitored preoperatively and 1 and 2 weeks postoperatively. More specifically, each rat was housed in a transparent plastic cage of 30 cm in length×30 cm in width×30 cm in height, and the behavior was recorded on video cameras during the active time of rats (18:00 to 22:00). Food intake and mastication time were measured, and the food intake per unit of mastication time (feeding efficiency) was calculated. This experiment was performed on a muscle injury model subjected to administration of the SV peptide into the incised masseter muscles on both sides (SV group) and on a muscle injury model subjected to administration of PBS into the incised masseter muscles on both sides (PBS group).

[3] = test system: muscle injury model rats (incised masseter muscles on both sides); assay: Electrophysiological experiment (masseter EMG, Lissajous pattern), Example 1; assay type: in vivo, Jcl:SD rats; conditions: 1 week postoperatively
Description: as §2
This experiment was performed on rats subjected to incision of masseter muscles on both sides and subsequent administration of the SV peptide into the incised left masseter muscle and of PBS into the incised right masseter muscle. Bipolar needle electrodes were retained in the masseter muscles on both sides, and myogenic potential signals received through connectors fixed to both sides of the parietal bone were monitored. Electromyographic (EMG) data were recorded preoperatively and 1 week postoperatively. Generally, in the electromyogram of masseter muscles recorded during food ingestion, the cutting phase and the grinding phase in the masticatory movement show different waveforms. […]
Lissajous pattern (FIG. 3). […] Based on this, the chewing side preference was determined.

fibroblasts = conditions: Patent Literature 4; cited from earlier work
[4] = test system: muscle injury model rats (incised masseter muscles on both sides); assay: CT image analysis at postoperative week 8; assay type: in vivo, Jcl:SD rats
Description: as §1
Images were taken at postoperative week 8 using a micro CT for laboratory animals (Rigaku, tube voltage: 90 kV, tube current: 160 μA, voxel size: 118 μm). […] On the image at the level of the occlusal plane including the masseter muscle incision site, the muscle cross-sectional area (CSA), the mean CT value, and the % CSA (the percentage of the area having a muscle CT value in the area of interest) were measured and compared.

SVVYGLR [SV peptide]
mesenchymal cell proliferation (mesenchymal cell): promotes mesenchymal cell proliferation
feeding efficiency (food intake per unit of mastication time) ([1]; postoperative week 8, SV group vs PBS group): significantly higher value than that in the PBS group
feeding efficiency (food intake per unit of mastication time) ([1]; time course postoperative weeks 1, 2, 4, 6, 8, relative to week 1 value = 1): time-dependent improvement in feeding efficiency
feeding efficiency (food intake per unit of mastication time) ([2]; postoperative week 1, relative to preoperative value = 1, SV peptide 20 ng/mL): reduced
feeding efficiency (food intake per unit of mastication time) ([2]; postoperative week 2, relative to preoperative value = 1, SV peptide 20 ng/mL): recovered to almost the preoperative level
chewing side preference ([3]; SV peptide into left, PBS into right masseter muscle): left-side chewing preference was seen postoperatively
mean myogenic potential of the left masseter muscle during left-side chewing ([3]; left = SV peptide side, right = PBS side): reduced postoperatively, but the degree of the reduction was smaller than that in the mean myogenic potential of the right masseter muscle
type III collagen production in fibroblasts (fibroblasts): promotes type III collagen production in fibroblasts
muscle cross-sectional area (CSA) ([4]; CT image at occlusal plane level, SV group vs PBS group): significantly greater CSA in the area including the muscle incision site than that in the corresponding area in the PBS group
% CSA (percentage of the area having a muscle CT value in the area of interest) ([4]; SV side vs control side within SV group): significantly higher % CSA on the left side with SV administration (SV side) than that on the right side without administration (control side)
